Key:
human cancer cells = assay: MTT assay, human cancer cell lines; assay type: cell-based; conditions: 72 hours; highest concentration tested 100 μM
Experimental: (§1) The ability of these compounds to inhibit the proliferative capacity of human cancer cells was determined by a standard MTT assay. Briefly, cells were incubated for 72 hours in the presence of various concentrations of compound, and the cell viability was determined by monitoring the formation of a colored formazan salt of the tetrazolium salt 3-(4,5-dimethylthiazol-2-yl)-2,5-diphenyl tetrazolium bromide (MTT) by viable cells.

[1] = test system: calf thymus DNA (double-stranded DNA); assay: UV/VIS spectroscopy with double-stranded DNA; assay type: binding; conditions: 20 μM compound, pH 7.0, 100 mM KCl
Experimental: (§2) The N,N′-bis(3-morpholinopropyl)3,4,9,10-perylenetetracarboxilic acid diimide (KeTEL01) was synthesized from 3,4,9,10-perylenetetracarboxylic acid dianhydride and 3-morpholinopropylamine using a procedure analogous to that described above in example 5.3 for the synthesis of N,N′-bis(2-piperdinoethyl)-3,4,9,10-perylenetetracarboxylic acid diimide. A solution of KeTEL01 was prepared by dissolving 1 mg of KeTEL01 in 300 μL of 1 N HCl. To this solution was added 11 mL of a pH 7.0 buffer containing 20 mM sodium phosphate, 100 mM KCl, 1 mM EDTA, and 0.02% hydroxypropyl-β-cyclodextrin. Aliquots of this stock solution of KeTEL01 were transferred to 8 different quartz cuvettes and diluted into pH 7.0 mM sodium phosphate, 100 mM KCl, 1 mM EDTA buffer to afford solutions in which the concentration of KeTEL01 was 20 μM. To each of the cuvettes was added a solution of [d(TTAGGGT)]4 (SEQ ID No. 6) so that the final concentration of [d(TTAGGGT)]4 (SEQ ID No. 6) in each of the cuvettes was 0, 4, 8, 12, 16, 20, 50, and 80 μM. These solutions were allowed to stand overnight in the dark, and the UV/VIS spectrum of each was determined. […] In a parallel study, changes in the UV/VIS spectrum of a 20 μM solution of KeTEL01 in a pH 7.0 20 mM phosphate buffer containing 100 mM KCl and 1 mM EDTA were determined upon the addition of […] aliquots of a 3 mM (base pair) solution of calf thymus DNA.

Raji = assay: MTT cytotoxicity assay, Raji; assay type: cell-based, human; conditions: 72 hours
Experimental: as §1

MCF-7 = assay: MTT cytotoxicity assay, MCF-7; assay type: cell-based, human; conditions: MCF-7, 72 hours
Experimental: as §1

[2] = test system: [d(TTAGGGT)]4 G-quadruplex; assay: Kinetics of interaction with G-quadruplex DNA (absorption at 488 nm); assay type: binding, human; conditions: 5 μM compound, 50 μM quadruplex, pH 7.0
Experimental: A solution of 5 μM KeTEL01 in 20 mM phosphate buffer, 100 mM KCl, pH 7.0 was placed in a quartz cuvette and the UV/VIS spectrum determined. An aliquot of a solution of [d(TTAGGGT)]4 (SEQ ID No. 6) was added to the cuvette to afford a final concentration of 50 μM. The cuvette was quickly inverted several times and placed in the spectrophotometer. The absorption of the sample at 488 nm was continuously monitored for 3 hours, during which time, the absorption decreased in a multiexponential function. The time required for the absorption at 488 nm to reach one-half of its equilibrium value was 60 mm.

d(TTAGGGT)4 G-quadruplex = assay: UV/VIS spectroscopy titration with G-quadruplex; assay type: binding, human; conditions: 20 μM compound, 0-80 μM quadruplex, overnight, pH 7.0
Experimental: (B) Compounds may be selected for their ability to interact with human DNA G-quadruplex as indicated by UV/VIS spectroscopy. To a 10 μM solution of N,N′-bis(2-dimethylaminoethyl)-3,4,9,10-perylenetetracarboxylic acid diimide in 20 mM phosphate buffer containing 100 mM KCl, pH 7.0 in a quartz cuvette was added 10 μL aliquots of a 3 mM solution of d(TTAGGGT)4 (SEQ ID No. 6). After each addition the UV/VIS spectrum was recorded.
as §2

PC-3 = assay: MTT cytotoxicity assay, PC-3; assay type: cell-based, human; conditions: PC-3, 72 hours
Experimental: as §1

BT-20 = assay: MTT cytotoxicity assay, BT-20; assay type: cell-based, human; conditions: BT-20, 72 hours
Experimental: as §1

[3] = test system: G-quadruplex in template DNA PQ74; assay: DNA Synthesis Arrest Assay (Taq polymerase primer extension, PQ74 template); assay type: biochemical
Experimental: It has been shown that DNA sequences with quadruplex-forming potential present obstacles to DNA synthesis by DNA polymerases in a K^+ dependent manner. This K^+ dependent block to DNA polymerase is a selective and sensitive indicator of the formation of intramolecular quadruplexes (Weitzmann, et al., 1996).
The assay is a modification of that described by Weitzmann, et al. Briefly, primers (24 nM, sequence: 5′-TAATACGACTCACTATAG-3′) (SEQ ID No. 9) labeled with [γ-^32P]ATP were mixed with template DNA PQ74(12 nM, sequence: […] […]-3′) (SEQ ID No. 10) in a Tris-HCl buffer (10 mM Tris, pH 8.0) containing 5 mM K^+ and heated at 90° C. for 4 mm. After cooling at room temperature for 15 mm. potential G-quadruplex-interactive compounds were then added to various concentrations. The primer extension reactions were initiated by adding dNTP (final concentration 100 μM), MgCl2 (final concentration 3 mM) and Taq polymerase (2.5 U/reaction, Boehringer Mannheim). The reactions were incubated at 55° C. for 15 mm. then stopped by adding an equal volume of stop buffer (95% formamide, 10 mM EDTA; 10 mM NaGH, 0.1% xylene cyanol. 0.1% bromophenol blue). The products were separated on a 12% polyacrylamide sequencing gel. The gels were then dried and visualized on a phosphorimager (Molecular Dynamics model 445 S1).
Using the DOCK screening methods above, the carbocyanine group of compounds were identified as potential G-quadruplex interactive agents. […] Each compound was assayed at a concentration of 20 μM.

d(TTAGGG)4 G-quadruplex = assay: NMR imino proton titration of G-quadruplex; assay type: binding, human; conditions: overall stoichiometry 1:1, 500 MHz
Experimental: (C) Compounds may be selected for their ability to interact with human DNA G-quadruplex as indicated by NMR spectroscopy. The imino proton spectrum (9-12 ppm) of a solution of d(TTAGGG)4 (SEQ ID No. 1) in D2O/H2O (10:90) was determined at 500 MHz. Aliquot of N,N′-bis(2-piperdinoethyl)-3,4,9,10-perylenetetracarboxylic acid diimide were added and the imino proton spectrum recorded.

[4] = test system: G-quadruplex of PQ74 template (four repeats of TTGGGG); assay: DNA synthesis arrest assay with BSU-1051, PQ74 template; assay type: biochemical
Experimental: (§3) This assay is a modification of that described by Weitzmann and co-workers (Weitzmann et al., 1996). Briefly, primers (P18, 24 nM) labeled with [γ-^32P] were mixed with template DNA (12 nM)) in a Tris-HCl buffer (10 mM Tris, pH 8.0) containing K^+ (5 mM for the PQ74 template and 50 mM for the HT4 template) and denatured by heating at 90° C. for 5 min. After cooling down to room temperature, BSU-1051 was added at various concentrations and incubated at room temperature for 15 min. The primer extension reactions were initiated by adding dNTP (final concentration 100 μM), MgCl2 (final concentration […]), and Taq DNA polymerase (2.5 U/reaction, Boehringer Mannheim). For sequencing reactions, the TaqTrack Sequencing System (Promega, Wis., Madison) was used. The sequencing reaction buffer was changed to 50 mM Tris-HCl, pH 9.0, 10 mM MgCl, and 50 mM K^+. The reactions were stopped by adding an equal volume of stop buffer (95% formamide, 10 mM EDTA, 10 mM NaOH, 0.1% xylene cyanol, 0.1% bromphenol blue). For the temperature-dependent studies, the ligand concentration was fixed and the primer extension reactions were carried out at the temperatures indicated in methods. The products were separated on a 12% polyacrylamide sequencing gel. The gels were then dried and visualized on a PhosphorImager (Molecular Dynamics model 445 S1).
Although it has been shown that G-quadruplex structures block primer extension by DNA polymerase in a K^+ dependent manner (Weitzmann et at., 1996), the inventors are unaware of any reports showing enhanced blockage by G-quadruplex—interactive agents. To determine if BSU-1051 binding to G-quadruplex enhances the block to DNA synthesis, primer extension reactions were carried out in the absence and presence of BSU-1051. Taq DNA polymerase primer extension on DNA templates containing four repeats of either TTGGGG (SEQ ID No. 7) (PQ74) or TTAGGG (SEQ ID No. 1) (HT4) in the presence of different concentrations of BSU-1051 at 55° C. were performed. […]

[5] = test system: G-quadruplex of HT4 template (four repeats of TTAGGG); assay: DNA synthesis arrest assay with BSU-1051, HT4 template; assay type: biochemical, human
Experimental: as §3, with “S1). […]” for “S1).”

[6] = test system: 7-deaza-dG substituted HT4 and PQ74 templates; assay: Primer extension on 7-deaza-dG substituted templates; assay type: biochemical; conditions: BSU-1051 up to 50 μM
Experimental: as §3, with “S1). […]” for “S1).”

telomerase = assay: Standard telomerase primer extension assay without PCR amplification; assay type: biochemical, human; conditions: at 50 μM, confirmatory tests
Experimental: The identified inhibitors may be used therapeutically to interfere with the function of telomerase and thus to treat cancers.
Briefly, the 18-mer telomeric primer d[TTAGGG]3 (SEQ ID No. 1) (1 μM) without or with N,N′-bis(2-dimethylaminoethyl)-3,4,9,10-perylenetetracarboxylic acid diimide was elongated with telomerase in the presence of 1.5 μM of [α-^32P]-dGTP (800 Ci mmol^−1, 10 mCi ml^−1) with 1 mM dATP and 1 mM dTTP. The extension products were isolated and visualized by autoradiography after denaturing gel electrophoresis.

O=C1c2ccc3c4ccc5c6c(ccc(c7ccc(c2c37)C(=O)N1CCCN1CCOCC1)c64)C(=O)N(CCCN1CCOCC1)C5=O [KeTEL01, N,N′-bis(3-morpholinopropyl)3,4,9,10-perylenetetracarboxilic acid diimide]
cytotoxic effect, MTT (human cancer cells): no cytotoxic effect | changes in the UV/VIS spectrum upon addition of calf thymus DNA [1]: No changes | IC50 (Raji): > 100 µM | IC50 (MCF-7): > 100 µM | time required for absorption at 488 nm to reach one-half of its equilibrium value [2]: 60 min | hyperchromicity at 510 nm (d(TTAGGGT)4 G-quadruplex): ~40% | hyperchromicity at 548 nm (d(TTAGGGT)4 G-quadruplex): ~100% | hypochromicity at 488 nm (d(TTAGGGT)4 G-quadruplex): ~40% | IC50 (PC-3): > 100 µM | IC50 (BT-20): > 100 µM

O=C1c2ccc3c4ccc5c6c(ccc(c7ccc(c2c37)C(=O)N1CCN1CCCCC1)c64)C(=O)N(CCN1CCCCC1)C5=O [N,N′-bis(2-piperdinoethyl)-3,4,9,10-perylenetetracarboxylic acid diimide]
DNA synthesis arrest (FIG. 8) ([3]; 0.5-50 μM, PQ sequence): DNA synthesis arrest | upfield shift of G6 imino resonance (d(TTAGGG)4 G-quadruplex): > 0.2 ppm

C[N+]1(CCC(=O)Nc2ccc3c(c2)C(=O)c2ccc(NC(=O)CC[N+]4(C)CCCCC4CO)cc2C3=O)CCCCC1CO.[I-].[I-] (stereo not drawn) [BSU-1051]
ΔTm of G-quadruplex ([4]; 20 μM BSU-1051): about 20 °C | temperature up to which polymerase pausing is observed ([4]; 20 μM BSU-1051, without ligand pausing almost lost at around 65° C.): 74 °C | primer extension by Taq DNA polymerase ([4]; 100 μM BSU-1051, 55° C., PQ74 or HT4 template): completely inhibited | ΔTm of G-quadruplex ([5]; 20 μM BSU-1051): about 20 °C | temperature up to which polymerase pausing is observed ([5]; in the presence of BSU-1051, without ligand pausing fades out at 55° C.): 65 °C | polymerase pausing on 7-deaza-dG substituted templates [6]: no significant pausing

CCN1/C(=C/C=C/c2sc3ccccc3[n+]2CC)Sc2ccccc21.[I-] [UT-SK-002, diethylthiocarbocyanine iodide]
Stop (F + P)rel: relative amount of both full-length and paused products ([3]; compound 20 μM): 88% | Stop (P/T)rel: relative ratio of paused products to total products ([3]; compound 20 μM): 139% | inhibition of telomerase (telomerase): 10-35%

From patent US6689887B2, “Inhibition of human telomerase by a G-quadruplex-interaction compound” (Board of Regents, The University of Texas System, priority 1998, dated 2004)
